Source: patent US20250041215A1, “MULTIDOSE PRESERVATIVE-FREE (MDPF) OPHTHALMIC DOSE DELIVERY WITH ADDITION OF FORMULATION SURFACTANTS” (ALCON INC., priority 2023, published 2025)

Test: Surface tension of ophthalmic composition with added surfactant (Biolin Sigma 700/701 tensiometer)
Assay type: physicochemical
Conditions: surfactant added at 0.1% w/v to ophthalmic composition A or B, FIGS. 4-6

| Substance | change of surface tension of the ophthalmic composition | change of surface tension of the ophthalmic composition (listed as tyloxapol) |
| --- | --- | --- |
| polyoxyl 40 stearate | surface tension was lowered |  |
| polysorbate 80 | surface tension was lowered |  |
| tyloxapol | reduced the surface tension the most | surface tension was lowered |
